Source: patent US9328138B2 (priority 2011, dated 2016)
Structures can show the parent of a compound that is named as a salt.

Assays:
[1] = target: T1, HCV genotype 1b (BK) NS3 modified enzyme with a R155K mutation (Hepatitis C virus genotype 1b, UniProt P26663, R1181K); experiment: HCV NS3 protease time-resolved fluorescence (TRF) assay, genotype 1b R155K; assay type: biochemical; details: Ki 1b R155K
T1 construct: HCV genotype 1b (BK) NS3 modified enzyme
Procedure, shortened: (§1)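 Steps: compound plus NS3/NS4A enzyme for 10 minutes; add peptide substrate to 25 nM; let cleavage proceed 6 hours at room temperature; read product fluorescence (340 nm excitation, 615 nm emission, delayed 400 μs). Enzyme levels gave signal/background 5-20.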

[2] = target: HCV NS3 protease genotype 3a (3A-1) (Hepatitis C virus genotype 3a, UniProt Q81258); experiment: HCV NS3 protease time-resolved fluorescence (TRF) assay, genotype 3a; assay type: biochemical; details: Ki 3a
Procedure, shortened: as §1

[3] = first of two values printed in the cell (not explained)
[4] = second of two values printed in the cell (not explained)
[5] = genotype 1b (BK) NS3 R155K, single value

C=C[C@@H]1C[C@]1(NC(=O)[C@@H]1C[C@@H]2CN1C(=O)[C@H](C1CCCCC1)NC(=O)O[C@@H]1C[C@H]1CCCCCc1c(nc3ccccc3c1OC1CC3CCC(C1)N3CCOC)O2)C(=O)NS(=O)(=O)C1(C)CC1 (stereo partly drawn) [Example 284, (1aR,5S,8S,10R,22aR)-5-cyclohexyl-N-[(1R,2S)-2-ethenyl-1-{[(1-methylcyclopropyl)sulfonyl]carbamoyl}cyclopropyl]-17-{[8-(2-methoxyethyl)-8-azabicyclo[3.2.1]oct-3-yl]oxy}-3,6-dioxo-1,1a,3,4,5,6,9,10,18,19,20,21,22,22a-tetradecahydro-8H-7,10-methanocyclopropa[18,19][1,10,3,6]dioxadiazacyclononadecino[11,12-b]quinoline-8-carboxamide] showed a Ki [1, 3] of 23 pM, a Ki [1, 4] of 53 pM and a Ki [2] of 280 pM.
Molecule C=C[C@@H]1C[C@]1(NC(=O)[C@@H]1C[C@@H]2CN1C(=O)[C@H](C(C)(C)C)NC(=O)O[C@@H]1C[C@H]1CCCCCc1c(nc3ccccc3c1OCCCNC1CCCC1)O2)C(=O)NS(=O)(=O)C1(C)CC1 [Example 182, (1aR,5S,8S,10R,22aR)-5-tert-butyl-17-[3-(cyclopentylamino)propoxy]-N-[(1R,2S)-2-ethenyl-1-{[(1-methylcyclopropyl)sulfonyl]carbamoyl}cyclopropyl]-3,6-dioxo-1,1a,3,4,5,6,9,10, 18,19,20,21,22,22a-tetradecahydro-8H-7,10-methanocyclopropa[18,19][1,10,3,6] dioxadiazacyclononadecino[11,12-b] quinoline-8-carboxamide] has a Ki [1, 5] of 64 pM and a Ki [2] of 610 pM.
In the case of C=C[C@@H]1C[C@]1(NC(=O)[C@@H]1C[C@@H]2CN1C(=O)[C@H](C(C)(C)C)NC(=O)O[C@@H]1CCC[C@H]1CC/C=C/Cc1c(nc3ccccc3c1OCCN1CCCCC1)O2)C(=O)NS(=O)(=O)C1CC1 [Example 75, (3aR,7S,10S,12R,21E,24aS)-7-tert-butyl-N-{(1R,2S)-1-[(cyclopropylsulfonyl)carbamoyl]-2-ethenylcyclopropyl}-5,8-dioxo-19-[2-(piperidin-1-yl)ethoxy]-1,2,3,3a,5,6,7,8,11,12,20,23,24,24a-tetradecahydro-10H-9,12-methanocyclopenta[18,19][1,10,3,6]dioxadiazacyclononadecino[11,12-b]quinoline-10-carboxamide], the Ki [1, 5] is reported as 280 pM and the Ki [2] is reported as 2300 pM.
In the case of C=C[C@@H]1C[C@]1(NC(=O)[C@@H]1C[C@@H]2CN1C(=O)[C@H](C(C)(C)C)NC(=O)O[C@@H]1CCC[C@H]1CCCCCc1c(nc3ccccc3c1OCCN(C)C)O2)C(=O)NS(=O)(=O)C1(COC)CC1 [Example 63, (3aR,7S,10S,12R, 24aR)-7-tert-butyl-19-[2-(dimethylamino)ethoxy]-N-[(1R,2S)-2-ethenyl-1-({[1-(methoxymethyl)cyclopropyl]sulfonyl}carbamoyl)cyclopropyl]-5,8-dioxo-1,2,3,3a, 5,6,7,8,11,12,20, 21,22,23,24,24a-hexadecahydro-10H-9,12-methanocyclopenta [18,19][1,10,3,6]dioxa-diazacyclononadecino [11,12-b]quinoline-10-carboxamide], the Ki [1, 5] is reported as 350 pM and the Ki [2] is reported as 7200 pM.
C=C[C@@H]1C[C@]1(NC(=O)[C@@H]1C[C@@H]2CN1C(=O)[C@H](C1CCCCC1)NC(=O)O[C@@H]1C[C@H]1CCCCCc1c(nc3c(OC)cccc3c1OCC1CN(C(=O)OC(C)(C)C)C1)O2)C(=O)NS(=O)(=O)C1(C)CC1 [Example 215, tent-butyl 3-[({(1aS,5R,8S,10R,22aR)-5-cyclohexyl-8-[(2-ethenyl-1-{[(1-methylcyclopropyl)sulfonyl]carbamoyl}cyclopropyl)carbamoyl]-13-methoxy-3,6-dioxo-1,1a,3,4,5,6,9,10,18,19,20,21,22,22a-tetradecahydro-8H-7,10-methanocyclopropa[18,19][1,10,3,6]dioxadiazacyclononadecino[11,12-b]quinolin-1'7-yl}oxy)methyl]azetidine-1-carboxylate] gave a Ki [1, 5] of 1700 pM and a Ki [2] of 55000 pM.
With C=C[C@@H]1CC1(NC(=O)[C@@H]1C[C@@H]2CN1C(=O)[C@H](C(C)(C)C)NC(=O)O[C@@H]1C[C@H]1CCCCCc1c(nc3ccccc3c1OC1C3CNCC1COC3)O2)C(=O)NS(=O)(=O)C1(C)CC1 (single isomer, unassigned) [Example 259, trifluoroacetate] the Ki [1, 3] was 30 pM, the Ki [1, 4] was 350 pM and the Ki [2] was 7400 pM.
In the case of CC1(S(=O)(=O)NC(=O)[C@@]23C[C@H]2/C=C\CCCCC[C@@H]2NC(=O)O[C@@H]4C[C@H]4CCC/C=C/c4c(nc5ccccc5c4OCCN4CCOCC4)O[C@@H]4C[C@@H](C(=O)N3)N(C4)C2=O)CC1 [Example 297, (1aR,5S,11Z,12aS,13aR,16S,19R,27E, 31aR)-N-[(1-methylcyclopropyl)sulfonyl]-26-[2-(morpholin-4-yl)ethoxy]-3,15,33-trioxo-1,1a,3,4,5,6,7,8,9,10,12a,13,15,16,18,19,29, 30,31,31a-icosahydro-5,17:16,19-dimethanodicyclopropa[12,13:28,29][1,20,3, 14,17]dioxatriazacyclononacosino[21,22-b]quinoline-13a(14H)-carboxamide], the Ki [1, 5] is reported as 270 pM and the Ki [2] is reported as 4300 pM.
With C=C[C@@H]1C[C@]1(NC(=O)[C@@H]1C[C@@H]2CN1C(=O)[C@H](C1CCCC1)NC(=O)O[C@@H]1CCC[C@H]1CC/C=C/Cc1c(nc3ccccc3c1OCCc1ccccn1)O2)C(=O)NS(=O)(=O)C1CC1 [Example 43, (3aR,7S,10S,12R,21E,24aS)-7-cyclopentyl-N-{(1R,2S)-1-[(cyclopropylsulfonyl)carbamoyl]-2-ethenylcyclopropyl}-5,8-dioxo-19-[2-(pyridin-2-yl)ethoxy]-1,2,3,3a, 5,6,7,8,11,12,20,23,24,24a-tetradecahydro-10H-9,12-methanocyclopenta [18,19][1,10,3,6]dioxadiazacyclonona decino[11,12-b]quinoline-10-carboxamide] the Ki [1, 5] was 280 pM and the Ki [2] was 9900 pM.
For C=C[C@@H]1C[C@]1(NC(=O)[C@@H]1C[C@@H]2CN1C(=O)[C@H](C1CCCCC1)NC(=O)O[C@@H]1C[C@H]1CCCCCc1c(nc3ccccc3c1OCCCN1CCOCC1)O2)C(=O)NS(=O)(=O)C1(C)CC1 [Example 240, 4-(3-{[(1aR,5S,8S,10R,22aR)-5-cyclohexyl-8-{[(1R,2S)-2-ethenyl-1-{[(1-methylcyclopropyl)sulfonyl]carbamoyl}cyclopropyl]carbamoyl}-3,6-dioxo-1,1a,3,4,5,6,9,10,18,19,20,21,22,22a-tetradecahydro-8H-7,10-methanocyclopropa[18,19][1,10,3,6]dioxadiazacyclononadecino[11,12-b]quinolin-17-yl]oxy}propyl)morpholin-4-ium formate], the Ki [1, 3] was 19 pM, the Ki [1, 4] was 280 pM and the Ki [2] was 2900 pM.
With C=C[C@@H]1C[C@]1(NC(=O)[C@@H]1C[C@@H]2CN1C(=O)[C@H](C1CCCC1)NC(=O)O[C@@H]1CCC[C@H]1CC/C=C/Cc1c(nc3ccccc3c1OCCN(C)C)O2)C(=O)NS(=O)(=O)C1CC1 [Example 82, (3aR,7S,10S,12R,21E,24aS)-7-cyclo pentyl-N-{(1R,2S)-1-[(cyclopropylsulfonyl)carbamoyl]-2-ethenylcyclopropyl}-19-[2-(dimethylamino)ethoxy]-5,8-dioxo-1,2,3,3a,5,6,7,8,11,12,20,23, 24,24a-tetradecahydro-10H-9,12-methanocyclopenta[18,19] [1,10,3,6]dioxadiazacyclononadecino [11,12-b]quinoline-10-carboxamide] the Ki [1, 5] was 180 pM and the Ki [2] was 2500 pM.
C=C[C@@H]1CC1(NC(=O)[C@@H]1C[C@@H]2CN1C(=O)[C@H](C1CCCCC1)NC(=O)O[C@@H]1C[C@H]1CCCCCc1c(nc3ccccc3c1OCCCN1CCNCC1)O2)C(=O)NS(=O)(=O)C1(C)CC1 (stereo partly drawn) [Example 265, potassium ({(1R,2S)-1-[({(1aR,5S,8S,10R,22aR)-5-cyclohexyl-3,6-dioxo-17-[3-(piperazin-1-yl)propoxy]-1,1a,3,4,5,6,9,10,18,19,20,21,22,22a-tetradecahydro-8H-7,10-methanocyclopropa[18,19][1,10,3,6]dioxadiazacyclononadecino[11,12-b]quinolin-8-yl}carbonyl)amino]-2-ethenylcyclopropyl}carbonyl)[(1-methylcyclopropyl)sulfonyl]azanide] gave a Ki [1, 3] of 16 pM, a Ki [1, 4] of 110 pM and a Ki [2] of 1150 pM.
Work on C=C[C@@H]1C[C@]1(NC(=O)[C@@H]1C[C@@H]2CN1C(=O)[C@H](C1CCCCC1)NC(=O)O[C@@H]1C[C@H]1CCCCCc1c(nc3ccccc3c1OC1CCCN(C)C1)O2)C(=O)NS(=O)(=O)C1(C)CC1 (stereo partly drawn) [Example 291, 3-{[(1aR,5S,8S,10R,22aR)-5-cyclohexyl-8-{[(1R,2S)-2-ethenyl-1-{[(1-methylcyclopropyl)sulfonyl]carbamoyl}cyclopropyl]carbamoyl}-3,6-dioxo-1,1a,3,4,5,6,9,10,18,19,20,21,22,22a-tetradecahydro-8H-7,10-methanocyclopropa[18,19][1,10,3,6]dioxadiazacyclononadecino[11,12-b]quinolin-17-yl]oxy}-1-methylpiperidinium formate] yielded a Ki [1, 3] of 10 pM, a Ki [1, 4] of 85 pM and a Ki [2] of 774 pM.
C=C[C@@H]1C[C@]1(NC(=O)[C@@H]1C[C@@H]2CN1C(=O)[C@H](C(C)(C)C)NC(=O)O[C@@H]1C[C@H]1CCCCCc1c(nc3ccccc3c1OC1CCN(CC)CC1)O2)C(=O)NS(=O)(=O)C1(C)CC1 [Example 229, (1aR,5S,8S,10R,22aR)-5-tert-butyl-N-[(1R,2S)-2-ethenyl-1-{[(1-methylcyclopropyl)sulfonyl]carbamoyl}cyclopropyl]-17-[(1-ethylpiperidin-4-yl)oxy]-3,6-dioxo-1,1a,3,4,5,6,9,10,18,19,20,21,22,22a-tetradecahydro-8H-7,10-methanocyclopropa[18,19][1,10,3,6] dioxadiazacyclononadecino[11,12-b]quinoline-8-carboxamide] was tested, and the Ki [1, 5] was 34 pM and the Ki [2] was 250 pM.
